Reference: patent US20180327364A1, “MTOR INHIBITORS AND METHODS OF USE THEREOF” (Brandeis University, priority 2015, published 2018)

What was measured:
[1] = tested on: mTORC2 catalyzed phosphorylation of Akt; experiment: Akt phosphorylation immunoblot (mTORC2) in HEK-293T cells; type: cell-based; details: HEK-293T cells treated with Cbz-B3A
Protocol: (§1) Quantification of western blots was performed with ImageJ. Cells were lysed in RIPA buffer (1% NP-40, 1% NaDeoxycholate, 0.1% SDS, 10 mM TrisCl, 10 mM β-glycerophosphate, 10 mM Na pyrophosphate, 50 mM NaF, 200 μM Na vanadate, 1 mM EDTA, 500 μM EGTA, 1% benzonase, and supplemented with complete (Roche Diagnostics) protease inhibitors).

[2] = tested on: Rheb; experiment: Rheb level immunoblot in HEK-293T cells; type: cell-based; details: 10 μM, 4 h; p=0.04 vs DMSO
Protocol: as §1

[3] = tested on: LC3 A/B II; experiment: LC3 A/B II immunoblot (autophagy) in HEK-293T cells; type: cell-based; details: Cbz-B3A 10 μM, rapamycin 20 nM, 4 h
Protocol: as §1

[4] = tested on: MOLT-4; experiment: NCI-60 DTP Human Tumor Cell Line Screen, MOLT-4; type: cell-based; details: 10 μM, 48 h
Protocol: (§2) Screen was conducted as previously described, performed at Developmental Therapeutics Program NCI/NIH.

[5] = target: T1, ubiquilin 4 (Homo sapiens, UniProt Q9NRR5); experiment: Cellular thermal shift assay (CETSA) in HEK-293T lysate; type: binding; details: 100 μM Cbz-B3A, lysate incubated 30 min
T1 construct: endogenous in cells; host or cells: HEK-293T lysate
Protocol: CETSA was performed as previously described. Briefly, HEK-293T cells were lysed in DPBS with Roche complete protease inhibitor by 3 quick freeze thaws, centrifuged at 20,000 g for 20 min at 4° C., and the supernatant was adjusted to 4 mg/mL. Lysate was incubated with compound for 30 min and heated to different temperatures in a thermal cycler for 3 min, then cooled to room temperature for 3 min. All samples were then centrifuged at 20,000 g for 20 min at 4° C. and a western blot was run on the supernatant.

[6] = tested on: K562 cells; experiment: NCI-60 DTP Human Tumor Cell Line Screen, K562; type: cell-based; details: 48 h, read-out: inhibition of proliferation, K562
Protocol: as §2

[7] = tested on: protein translation in HEK-293T cells; experiment: 35S-methionine/cysteine incorporation translation assay; type: cell-based; details: Homo sapiens, HEK-293T, 4 h treatment then 1 h labeling
Protocol: 80,000 cells/well of HEK-293T cells were plated into 24 well plates 24 h before the assay. Cells were treated with indicated concentration of compound for 4 h. After 4 h, the media was removed and replaced with DMEM without methionine and cysteine (Lifetechnologies) supplemented with 0.2 mCi/mL EXPRESS [^35S] protein labeling mix (PerkinElmer), 10% dialyzed FBS (Pierce), 1× glutaMax (Gibco), 100 U/mL penicillin 100 μg/mL streptomycin (Gibco), 1 mM sodium pyruvate (Lifetechnologies), and the indicated concentration of compound. After 1 h, this media was removed, cells were washed with ice cold PBS, and lysed with low deoxycholate RIPA buffer (10 mM Tris-Cl, 1% NP-40, 0.5% Na Deoxycholate, 0.1% SDS, 140 mM NaCl, 1 mM EDTA, 500 μM EGTA, 1× Roche Complete protease inhibitors, 1:100 Benzonase, and at pH 8.0). Lysate was centrifuged at maximum speed for 20 m at 4° C. The concentration was measured by Bradford assay. 10 μg of lysate was added to […] ice cold 1 mg/mL BSA with 0.02% Na Azide. 1 mL of ice cold 10% TCA was added, the solutions were mixed and incubated on ice for 0.5 h. These mixtures were vacuum filtered onto GF/C Whatman glass microfiber filters. The filters were washed with 2×5 mL of 10% TCA, then 2×3 mL ethanol. The filters were then dried for a 0.5 h. The filters were placed into scintillation vials with 5 mL of scintillation fluid and read on a scintillation counter.

[8] = tested on: SR; experiment: NCI-60 DTP Human Tumor Cell Line Screen, SR; type: cell-based; details: 10 μM, 48 h
Protocol: as §2

T1 sequence (Q9NRR5 whole entry): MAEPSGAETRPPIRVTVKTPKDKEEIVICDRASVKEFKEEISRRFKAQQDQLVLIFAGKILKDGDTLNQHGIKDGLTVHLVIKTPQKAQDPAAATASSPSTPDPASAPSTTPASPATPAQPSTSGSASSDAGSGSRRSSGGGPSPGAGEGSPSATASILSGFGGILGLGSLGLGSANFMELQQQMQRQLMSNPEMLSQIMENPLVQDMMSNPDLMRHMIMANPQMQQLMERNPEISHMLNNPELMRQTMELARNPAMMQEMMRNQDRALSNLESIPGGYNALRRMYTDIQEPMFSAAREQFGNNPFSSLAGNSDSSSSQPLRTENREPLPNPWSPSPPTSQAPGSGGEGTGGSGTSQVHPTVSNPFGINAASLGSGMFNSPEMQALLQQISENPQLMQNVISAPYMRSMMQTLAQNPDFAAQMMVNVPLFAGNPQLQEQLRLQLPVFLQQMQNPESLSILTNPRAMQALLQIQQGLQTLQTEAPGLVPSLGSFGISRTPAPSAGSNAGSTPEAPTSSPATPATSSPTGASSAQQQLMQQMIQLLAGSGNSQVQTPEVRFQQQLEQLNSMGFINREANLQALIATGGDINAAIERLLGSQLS

## CC(C)(C)OC(=O)/N=C(\NCCC[C@H](NC(=O)OC(C)(C)C)C(=O)NCCCCCCNC(=O)OCc1ccccc1)NC(=O)OC(C)(C)C [Cbz-B3A]
[1]
  Akt phosphorylation at Ser473: No decrease in Akt phosphorylation
[2]
  amount of Rheb: increased the amount of Rheb
[3]
  LC3 A/B II (autophagy): increased LC3 A/B II to equivalent levels as rapamycin
[4]
  decrease in proliferation, MOLT-4: 80%
[5]
  melting temperature shift of ubiquilin 4: clear shift to a lower melting temperature
[6]
  inhibition at 10 µM: 39%
[7]; read-out: EC50 of inhibition of 35S-methionine/cysteine incorporation
  EC50: ~3000 nM
[7]; saturating concentration (Cbz-B3A 10 μM), read-out: maximal inhibition of translation (35S-methionine/cysteine incorporation)
  inhibition at 10 µM: 68%
[8]
  decrease in proliferation, SR: 83%
